Test results as given in patent US7638284B2, “Immunoglobulin A inducing protein and uses therefor” (The Curators of the University of Missouri, priority 2000, dated 2009).
“Also recorded” adds a separate entry of the source.

Columns and labels:
sIgD+ B cells = assay: Bioassay for IGIP activity on naive human B cells (CD40L, IL-2, with or without IL-10; ELISA day 14); assay type: cell-based
Procedure: Total PBMC's were isolated from normal healthy donors via gradient centrifugation and labeled with biotinylated mouse monoclonal antibody (mAB) to human IgD. Pure sIgD^+ B cells were then isolated with Streptavidin-coated Microbeads using an AutoMACS magnetic cell sorter.
Enriched sIgD^+ B cells were cultured in RPM1 1640 (supplemented with 10% FBS, 2 mM L-glutamine, 100 U/ml penicillin and 100 μg/ml streptomycin) at 0.8-1.0×10^5 cells/well in 96-well plates. B cells were co-cultured at a 4:1 ratio with mitomycin C treated DAP3 cells stably transfected with CD40L and 50 ng/ml IL-2, with or without 50 ng/ml IL-10. Cell cultures were then stimulated with 0.1, 1.0 or 10 ng/ml IGIP, 1.0 ng/ml TGF-β, or left unstimulated. Culture supernatants were assayed for secreted immunoglobulins (IgM, IgG, and IgA) by ELISA on day 14.

peripheral blood B cells = assay: Bovine B cell bioassay (CD40L-DAP3 cells + IL-2, 7 days) with ELISA for secreted IgA, IgM, IgG; assay type: cell-based
Procedure: Peripheral blood mononuclear cells (PBMCs) were isolated from the peripheral blood of 6-12 month old Holstein or Angus heifers or steers by incubating 30 ml of red cell lysis buffer (0.15 NH4Cl, 10 mM KHCO3, 1 mM EDTA, H2O) with 20 ml of blood for 20 minutes at room temperature. During this incubation, carbonyl iron (0.1 μg/ml) was added to the blood mixture for 20 minutes and then exposed to a magnetic field for 2 minutes to remove phagocytic cells. Following incubation, the cells were washed 3 times with Hank's buffered salt solution (HBSS). B lymphocytes were enriched by panning in the presence of 3% bovine serum albumin (BSA, Fraction V, Sigma, St. Louis, Mo.) in HBSS as described in Severson et al. (1987). Briefly, PBMCs were resuspended at a concentration of 1×10^7 cells/ml in panning solution (3% BSA, 10 mM Tris, 50 μg/ml gentamicin, 0.0025 mM CaCl2, and 0.002 mM MgCl2 in HBSS) and allowed to adhere to plastic tissue culture plates for 1 hour. Non-adherent cells were removed by washing twice with HBSS and adherent cells (enriched B cells) were harvested by vigorous pipetting. 1×10^5 B cells and 2×10^4 mitomycin C treated CD40L-DAP3 transfected cells were cultured for 7 days in 96-well plates in 2001 μl final volume complete medium (RPMI 1640) and 10% immunoglobulin free normal horse serum with 1 ng/ml recombinant huIL-2 (Peppro Tech Inc., Rocky Hill, N.J.) and 10% culture supernatant from cells transfected with library plasmids. Where indicated, pre-committed B cells and residual T cells were depleted by incubating panned B cells for 30 minutes on ice with 30 μl each of mouse anti-bovine IGA (Serotec, Raleigh, N.C.), mouse anti-bovine IgG1 (Serotec), mouse anti-bovine IgG2 (Serotec), and MM1A (anti-CD3 antibody, VMRD, Pullman, Wash.). The cells were washed 3 times with HBSS and sheep anti-mouse IgG Dynabeads (Dynal, Oslow, Norway) were added according to the manufacturer's instructions. The B cells were then placed in a magnetic field and the non-adherent cells removed. These cells were next incubated on ice for 30 minutes with biotinylated goat anti-bovine IgM (Kirkegard and Perry (KPL), Gaithersburg, Md.), washed 3 times and streptavidin beads (Dynal) were added according to the manufacturer's instructions. The cells were placed on a magnetic field and the adherent cells (IgM^+ B cells) were harvested. All bioassays were performed in triplicate in 96-well Corning flat bottom plates.
Other reagents used in these studies were goat anti-bovine IgM (5 μg/ml, KPL) and porcine TGF-β (1 ng/ml, R & D Systems, Minneapolis, Minn.) that had been acid-activated according to the manufacturer's instructions. […]

IGIP mRNA = assay: Taqman RT-PCR relative quantification of steady state IGIP mRNA in PMA stimulated cell subsets; assay type: cell-based, bovine; settings: 5 ng/ml PMA for 18 hours
Excerpt: Selective IgA deficiency (IgAD) is the most common primary immunodeficiency. […] To determine if abnormalities of IGIP production, function or cellular responsiveness to IGIP are altered in all or a subpopulation of patients with IgAD, a sampling approach is used to screen as many clinical and immunological types of adult subjects as possible for IGIP abnormalities. The relative contribution of PBMC-derived populations can be ranked based on quantitative PCR assessment of resting versus phorbol ester stimulated bovine cells; DC>B cells>T cells>monocytes (see Table VI below).

[1] = in the presence of IL-10, CD40L + IL-2, IGIP 0.1 to 10 ng/ml, TGF-β 1 ng/ml, 14 days

Compound: IGIP: human homolog of IGIP, 0.1 to 10 ng/ml on naive human IgD+ B cells (Example III) (MKKRSVSGCNITIFAVMFSHLSAGKSPCGNQANVLCISRLEFVQYQS)
- IgA production by naive IgD+ B cells (in words) (sIgD+ B cells; IL-10, CD40L dependent, B-cell-receptor independent): enhanced IgA production
- number of IgA producing cells compared with TGF-β (sIgD+ B cells; in the presence of IL-10): greater number of IgA producing cells
- IgA production, level relative to TGF-β (sIgD+ B cells; [1]): 4-6 fold
- IgG production, level relative to TGF-β (sIgD+ B cells; [1]): 4-6 fold
- IgM production, level relative to TGF-β (sIgD+ B cells; [1]): 4-6 fold

Compound: TGF-β: porcine TGF-β (1 ng/ml, R & D Systems), acid-activated
- effect on IgA production (in words) (peripheral blood B cells; B cells stimulated via CD40L + IL-2 (CD40 alone)): less IgA production; also recorded: decreased IgA production
- effect on IgA production (in words) (peripheral blood B cells; B cells stimulated via CD40 and anti-IgM (BCR)): induced IgA production
- IgA production over that of B cells stimulated via CD40L + anti-IgM + IL-2 alone (peripheral blood B cells; Table IV experiment 2, dual stimulation CD40 and BCR): 10 fold

Compound: CCCCCCCCCCCCCC(=O)O[C@@H]1[C@@H](C)[C@@]2(O)[C@@H](C=C(CO)C[C@]3(O)C(=O)C(C)=C[C@@H]23)[C@@H]2C(C)(C)[C@]12OC(C)=O [PMA, phorbol myristic acetate]
- IGIP mRNA fold increase, stimulated vs unstimulated (IGIP mRNA; CD3+ cells): 2.03 fold
- IGIP mRNA, relative quantification, stimulated cells (IGIP mRNA; CD3+ cells): 4.79 × 10^−5
- IGIP mRNA fold increase, stimulated vs unstimulated (IGIP mRNA; CD14+ cells): 0.64 fold
- IGIP mRNA, relative quantification, stimulated cells (IGIP mRNA; CD14+ cells): 1.00 × 10^−5
- IGIP mRNA fold increase, stimulated vs unstimulated (IGIP mRNA; CD21+ cells): 7.6 fold
- IGIP mRNA, relative quantification, stimulated cells (IGIP mRNA; CD21+ cells): 3.65 × 10^−4
- IGIP mRNA fold increase, stimulated vs unstimulated (IGIP mRNA; DC): 7205 fold
- IGIP mRNA, relative quantification, stimulated cells (IGIP mRNA; DC): 0.263
